Seven compounds from ChEMBL document CHEMBL1649456 (Antimicrob Agents Chemother, 2009) can be followed below.

Series [1] has as its system Coxiella burnetii. The series is described as follows: Antimicrobial activity against compound-susceptible Coxiella burnetii Nine-Mile obtained from patient with acute Q fever infected in african green monkey Vero cells after 24 hrs by shell vial assay. Type of series: functional.
Series [2] deals with Coxiella burnetii. Description: Antimicrobial activity against compound-intermediate susceptible Coxiella burnetii Q212 obtained from patient with acute Q fever infected in african green monkey Vero cells after 24 hrs by shell vial assay. Format: functional. The conditions noted are these: Q212, 24 h.
Series [3] deals with Coxiella burnetii. Description: Antimicrobial activity against compound-intermediate susceptible Coxiella burnetii isolate CP1 obtained from patient with acute Q fever infected in african green monkey Vero cells after 24 hrs by shell vial assay. Particulars: isolate CP1, 24 h. Type of series: functional.
Series [4] concerns Coxiella burnetii. Description: Antimicrobial activity against compound-susceptible Coxiella burnetii isolate CP2 obtained from patient with acute Q fever infected in african green monkey Vero cells after 24 hrs by shell vial assay. Format: functional. Particulars: isolate CP2, 24 h.
Series [5] has as its system Coxiella burnetii. Description: Antimicrobial activity against compound-susceptible Coxiella burnetii isolate CP3 obtained from patient with acute Q fever infected in african green monkey Vero cells after 24 hrs by shell vial assay. Format: functional. Particulars: isolate CP3, 24 h.
For series [6], the system named is Coxiella burnetii. The series is described as follows: Antimicrobial activity against compound-susceptible Coxiella burnetii isolate CP4 obtained from patient with acute Q fever infected in african green monkey Vero cells after 24 hrs by shell vial assay. Format: functional. Particulars: isolate CP4, 24 h.
For series [7], the system named is Coxiella burnetii. Description: Antimicrobial activity against compound-susceptible Coxiella burnetii isolate CP5 obtained from patient with acute Q fever infected in african green monkey Vero cells after 24 hrs by shell vial assay. Format: functional. Particulars: isolate CP5, 24 h.
The test system of series [8] is Coxiella burnetii. The series is described as follows: Antimicrobial activity against compound-susceptible Coxiella burnetii isolate CP6 obtained from patient with acute Q fever infected in african green monkey Vero cells after 24 hrs by shell vial assay. Format: functional. Particulars: isolate CP6, 24 h.
The subject of series [9] is Coxiella burnetii. The series is described as follows: Antimicrobial activity against compound-susceptible Coxiella burnetii isolate CP7 obtained from patient with acute Q fever infected in african green monkey Vero cells after 24 hrs by shell vial assay. Format: functional. Particulars: isolate CP7, 24 h.
Series [10] has as its system Coxiella burnetii. Description: Antimicrobial activity against compound-susceptible Coxiella burnetii isolate CP8 obtained from patient with acute Q fever infected in african green monkey Vero cells after 24 hrs by shell vial assay. Type of series: functional. The conditions noted are these: isolate CP8, 24 h.
For series [11], the system named is Coxiella burnetii. Description: Antimicrobial activity against compound-susceptible Coxiella burnetii Q212 obtained from patient with acute Q fever infected in african green monkey Vero cells after 24 hrs by shell vial assay. Format: functional. The conditions noted are these: Q212, 24 h.
In series [12] the test system is Coxiella burnetii. The series is described as follows: Antimicrobial activity against compound-susceptible Coxiella burnetii isolate CP1 obtained from patient with acute Q fever infected in african green monkey Vero cells after 24 hrs by shell vial assay. Type of series: functional. Particulars: isolate CP1, 24 h.
For series [13], the system named is Coxiella burnetii. Description: Antimicrobial activity against compound-intermediate susceptible Coxiella burnetii isolate CP4 obtained from patient with acute Q fever infected in african green monkey Vero cells after 24 hrs by shell vial assay. Type of series: functional. Particulars: isolate CP4, 24 h.
The test system of another series is Vero. The series is described as follows: Cytotoxicity against african green monkey Vero cells at 4 ug/ml. Format: cell-based. The conditions noted are these: chlorocebus sabaeus.

Converted amounts (≈) assume the structure as drawn.

For the compound `O=C(O)c1cn(C2CC2)c2cc(N3CCNCC3)c(F)cc2c1=O` [CIPROFLOXACIN], the MIC against Coxiella burnetii [1], in the series with Coxiella burnetii [2], in the series on Coxiella burnetii [3], against Coxiella burnetii [4], against Coxiella burnetii [5] and in the series with Coxiella burnetii [6] was 4 µg/mL (≈ 12.1 µM) each time. The MIC with Coxiella burnetii [7], in the series on Coxiella burnetii [8], with Coxiella burnetii [9] and with Coxiella burnetii [10] was 4 µg/mL (≈ 12.1 µM) throughout.
For the compound `N[C@@H]1[C@H]2CN(c3nc4c(cc3F)c(=O)c(C(=O)O)cn4-c3ccc(F)cc3F)C[C@@H]12` [TROVAFLOXACIN], the MIC (commonly the lowest concentration found to suppress growth) against Coxiella burnetii [1] came out at 1 µg/mL (≈ 2.4 µM); against Coxiella burnetii [2], 1 µg/mL (≈ 2.4 µM); against Coxiella burnetii [11] it was 2 µg/mL (≈ 4.8 µM); with Coxiella burnetii [3], 1 µg/mL (≈ 2.4 µM); in the series on Coxiella burnetii [12] it was 2 µg/mL (≈ 4.8 µM); in the series on Coxiella burnetii [4] it was 1 µg/mL (≈ 2.4 µM). Moreover, the minimum inhibitory concentration (MIC) against Coxiella burnetii [5], in the series on Coxiella burnetii [6], in the series with Coxiella burnetii [7], in the series with Coxiella burnetii [8], against Coxiella burnetii [9] and against Coxiella burnetii [10] was 1 µg/mL (≈ 2.4 µM) in each case.
For `C[C@H]1c2cccc(O)c2C(=O)C2=C(O)[C@]3(O)C(=O)C(C(N)=O)=C(O)[C@@H](N(C)C)[C@@H]3[C@@H](O)[C@@H]21.O` [DOXYCYCLINE], the MIC against Coxiella burnetii [1] was 1 µg/mL; with Coxiella burnetii [2] it was 1 µg/mL; in the series with Coxiella burnetii [11], 2 µg/mL; with Coxiella burnetii [3], 1 µg/mL; in the series on Coxiella burnetii [12], 2 µg/mL; against Coxiella burnetii [4], 1 µg/mL. Besides, the MIC against Coxiella burnetii [5] came to 1 µg/mL; against Coxiella burnetii [13], 1 µg/mL; with Coxiella burnetii [6], 2 µg/mL; against Coxiella burnetii [7], 1 µg/mL; with Coxiella burnetii [8], 1 µg/mL; with Coxiella burnetii [9], 1 µg/mL. In the series on Coxiella burnetii [10], this compound yielded an MIC of 1 µg/mL.
As to `CC[C@H]1OC(=O)[C@H](C)[C@@H](O[C@H]2C[C@@](C)(OC)[C@@H](O)[C@H](C)O2)[C@H](C)[C@@H](O[C@@H]2O[C@H](C)C[C@H](N(C)C)[C@H]2O)[C@](C)(OC)C[C@@H](C)C(=O)[C@H](C)[C@@H](O)[C@]1(C)O` [CLARITHROMYCIN], the MIC came out at 2 µg/mL (≈ 2.67 µM) in the series with Coxiella burnetii [1]; 2 µg/mL (≈ 2.67 µM) against Coxiella burnetii [2]; 4 µg/mL (≈ 5.35 µM) against Coxiella burnetii [11]; 2 µg/mL (≈ 2.67 µM) with Coxiella burnetii [3]; 4 µg/mL (≈ 5.35 µM) against Coxiella burnetii [12]; 2 µg/mL (≈ 2.67 µM) in the series on Coxiella burnetii [4]. Moreover, the MIC against Coxiella burnetii [5], in the series on Coxiella burnetii [6], with Coxiella burnetii [7], against Coxiella burnetii [8], against Coxiella burnetii [9] and against Coxiella burnetii [10] was 2 µg/mL (≈ 2.67 µM) throughout.
Take `CC1COc2c(N3CCN(C)CC3)c(F)cc3c(=O)c(C(=O)O)cn1c23` (centres undefined) [OFLOXACIN]: the minimal inhibitory concentration (MIC) turned out to be 1 µg/mL (≈ 2.77 µM) with Coxiella burnetii [1]; 1 µg/mL (≈ 2.77 µM) in the series with Coxiella burnetii [2]; 2 µg/mL (≈ 5.53 µM) against Coxiella burnetii [11]; 1 µg/mL (≈ 2.77 µM) in the series with Coxiella burnetii [3]; 2 µg/mL (≈ 5.53 µM) against Coxiella burnetii [12]; 1 µg/mL (≈ 2.77 µM) against Coxiella burnetii [4]. Moreover, the MIC against Coxiella burnetii [5], with Coxiella burnetii [6], with Coxiella burnetii [7], in the series with Coxiella burnetii [8], in the series with Coxiella burnetii [9] and against Coxiella burnetii [10] was 1 µg/mL (≈ 2.77 µM) each time.
Regarding `CC(=O)NC[C@H]1CN(c2ccc(N3CCOCC3)c(F)c2)C(=O)O1` [LINEZOLID], the MIC in the series on Coxiella burnetii [1] was 2 µg/mL (≈ 5.93 µM); in the series with Coxiella burnetii [2] it was 2 µg/mL (≈ 5.93 µM); with Coxiella burnetii [11], 4 µg/mL (≈ 11.9 µM); in the series on Coxiella burnetii [3], 2 µg/mL (≈ 5.93 µM); against Coxiella burnetii [12] it was 4 µg/mL (≈ 11.9 µM); against Coxiella burnetii [4] it was 2 µg/mL (≈ 5.93 µM). Besides, the MIC against Coxiella burnetii [5], in the series on Coxiella burnetii [6], with Coxiella burnetii [7], with Coxiella burnetii [8], against Coxiella burnetii [9] and in the series on Coxiella burnetii [10] was 2 µg/mL (≈ 5.93 µM) each time.
With `CN(C)c1cc(NC(=O)CNC(C)(C)C)c(O)c2c1C[C@H]1C[C@H]3[C@H](N(C)C)C(O)=C(C(N)=O)C(=O)[C@@]3(O)C(O)=C1C2=O` [TIGECYCLINE], the MIC came out at 0.25 µg/mL (≈ 0.427 µM) in the series with Coxiella burnetii [1]; 0.25 µg/mL (≈ 0.427 µM) with Coxiella burnetii [2]; 0.5 µg/mL (≈ 0.854 µM) in the series on Coxiella burnetii [11]; 0.25 µg/mL (≈ 0.427 µM) in the series with Coxiella burnetii [3]; 0.5 µg/mL (≈ 0.854 µM) in the series on Coxiella burnetii [12]; 0.25 µg/mL (≈ 0.427 µM) against Coxiella burnetii [4]. Further, the MIC in the series on Coxiella burnetii [5], in the series with Coxiella burnetii [6], against Coxiella burnetii [7], in the series on Coxiella burnetii [8], with Coxiella burnetii [9] and in the series on Coxiella burnetii [10] was 0.25 µg/mL (≈ 0.427 µM) in each case. Moreover, the Activity result in the series with Vero is “Non-toxic”.
